For the series, the system named is tau. In words: Multiple-doses subcutaneous administration in hTau transgenic mice, brain tau. Type of series: in vivo, mouse. The note with it: 12 m-old hTau transgenic mice, subcutaneous 3 mg/kg once every 6 days, 5 times. How it is done:
For brain surgery and stereotaxic cerebroventricular drug delivery, the mice were placed in a stereotaxic apparatus and anesthetized with 2% isoflurane (RWD Life Science, R510-22) through a nose cone (300-500 mL/min, RWD Life Science, China, R500). The scalp was incised along the midline between the ears after the mice were sterilized with iodophors and 75% (vol/vol) alcohol. The holes were drilled stereotaxically in the skull at a cerebroventricular location (posterior 0.22 mm, lateral 0.9 mm, and ventral 2.3 mm relative to bregma). Using a microinjection system (Shenzhen RWD Life Technology Co., Ltd; RWD 69100), C004019 (5 μL, 200 μM) was infused at a rate of 0.5 μL/min. The needle was kept in place for 10 min before withdrawal. After the skin was sutured, the mice were placed on a heater for analepsia. For subcutaneous injection, C004019 was diluted with 20% HP-β-CD and injected under the skin on the back neck to reach a final concentration of 3 mg/kg (low dose) or 15 mg/kg (high dose).
The cells or hippocampal/cortex tissues were homogenized for ~ 30 min on ice in buffer [50 mM Tris·HCl pH 7.4-7.5, 100 mM NaCl, 1% (vol/vol) Triton X-100, 5 mM EDTA, 1:100 PMSF, 1:1,000 protease inhibitor cocktail containing 4-(2-Aminoethyl)-benzenesulfonyl fluoride hydrochloride, aprotinin, bestatin, leupeptin, E-64, and pepstatin A stored at 4 °C], and then centrifuged at 12,000 × g at 4 °C for 20 min. The supernatant was collected and the protein levels were analyzed using bicinchoninic acid (BCA, KF016, Sigma-Aldrich) by following the manufacturer's instruction (served as soluble protein). The pellet was further incubated with 8% (wt/vol) SDS buffer at 4 °C and then treated by ultrasonic wave to reach a complete resuspension. The suspension was spun (18,000 × g, 4 °C for 20 min) and the supernatant collected (served as insoluble fraction). The supernatant of different faction was respectively mixed with loading buffer (3:1, vol/vol) containing 200 mM Tris-HCl, pH 6.8, 8% SDS, 40% glycerol, and boiled for 10 min. […] Immunoreactive bands were quantitatively analyzed by Image J2x software. […]

Turning to `CC(=O)N1CCCN(c2nc(NCCc3cccs3)nc(N(C)CC(=O)NCCOCCOCCOCC(=O)N[C@H](C(=O)N3C[C@H](O)C[C@H]3C(=O)NCc3ccc(-c4scnc4C)cc3)C(C)(C)C)n2)CC1` [C004019], the “p-tau and tau aggregation (HT7, AT8 immunohistochemistry, Thioflavin S staining)” value was “Reduction of p-tau and tau aggregation”. In addition, under “Western blotting”, the “soluble and insoluble tau in cortex extracts” value is “could reduce both soluble and insoluble tau”; the “total and p-tau levels in hippocampal extracts” value was “significantly reduced total and p-tau levels”.
